# Entries after “also recorded” stand apart in the source; their conditions may differ.
# System: premenstrual syndrome
# Experiment: Blind test with questionnaire survey: alleviating effect on premenstrual syndrome, once a day for eight weeks
# Assay type: in vivo, women
# Conditions: for alleviation, percentage / alleviation, the number of people / complete alleviation, percentage / complete alleviation, the number of people / no change, percentage / no change, the number of people / significant alleviation, percentage / significant alleviation, the number of people: eight weeks
# Description: 1. Evaluation of Administration of Pinitol or D-Chiro-Inositol to Female Subject Pinitol and D-chiro-inositol were purchased from Biosearch Life (Camino de Purchil, 66. 18004 Granada, Spain). Selected as experiment subjects were 80 normal women of reproductive age, that is, 80 women at the age of 25-40 who had neither skipped three or more cycles of menstruation, nor been administered with a contraceptive pill, and nor received a psychiatric treatment. Of them, 40 persons were classified into four groups of 10 which were then administered respectively with a placebo free of pinitol and having no pharmaceutical effects and with pinitol at three different doses. Likewise, the remaining 40 persons were equally divided into one placebo group and three experimental groups to which D-chiro-inositol was administered at three different doses, respectively. A blind test was conducted in which the placebo and pinitol or D-chiro-inositol was administered once a day for eight weeks. Pinitol or D-chiro-inositol was administered at daily doses of 600 mg, 1,200 mg, and 2,400 mg for eight weeks. A survey was made of the experimental subjects before and after the clinical test of placebo and pinitol or D-chiro-inositol to evaluate the alleviating effect of pinitol or D-chiro-inositol on premenstrual syndrome. 2. Survey In the present disclosure, the questionnaire that experimental subjects had completed with respect to the severity of premenstrual syndrome were analyzed. The experimental subjects evaluated the placebo, pinitol, or D-chiro-inositol for a pharmacological effect on premenstrual syndrome on the basis of four grades: complete alleviation, significant alleviation, somewhat alleviation, and no change for dysmenorrhea, a period of dysmenorrhea, and coldness of hands and feet. [table]
# [1] = administration group of 1,200 mg or 2,400 mg
# [2] = coldness of hands and feet, 600 mg a day
# [3] = coldness of hands and feet, 1,200 mg a day
# [4] = coldness of hands and feet, 2,400 mg a day
# [5] = period of dysmenorrhea, 600 mg a day
# [6] = period of dysmenorrhea, 1,200 mg a day
# [7] = period of dysmenorrhea, 2,400 mg a day
compound,measurement,setting,value
"CO[C@H]1[C@H](O)[C@@H](O)[C@@H](O)[C@H](O)[C@@H]1O [Pinitol, pinitol]",share of group with somewhat or significant alleviation of the main symptoms of premenstrual syndrome,"administration group of 600 mg, across main symptoms",50-60%
same,share of group with complete alleviation of the main symptoms,"administration group of 1,200 mg",≥ 50%
same,share of group that answered alleviation in the main symptoms,[1],80-90%
same,share of group that did not feel changes in the main symptoms of premenstrual syndrome,[1],10%
same,share of group with complete alleviation of the main symptoms,"administration group of 2,400 mg",70-80%
same,"alleviation, percentage",[2],40.0%
same,"alleviation, the number of people",[2],4 person
same,"complete alleviation, percentage",[2],0.0%
same,"complete alleviation, the number of people",[2],0 person
same,"no change, percentage",[2],50.0%
same,"no change, the number of people",[2],5 person
same,"significant alleviation, percentage",[2],10.0%
same,"significant alleviation, the number of people",[2],1 person
same,"alleviation, percentage",[3],10.0%
same,"alleviation, the number of people",[3],1 person
same,"complete alleviation, percentage",[3],40.0%
same,"complete alleviation, the number of people",[3],4 person
same,"no change, percentage",[3],20.0%
same,"no change, the number of people",[3],2 person
same,"significant alleviation, percentage",[3],30.0%
same,"significant alleviation, the number of people",[3],3 person
same,"alleviation, percentage",[4],10.0%
same,"alleviation, the number of people",[4],1 person
same,"complete alleviation, percentage",[4],70.0%
same,"complete alleviation, the number of people",[4],7 person
same,"no change, percentage",[4],10.0%
same,"no change, the number of people",[4],1 person
same,"significant alleviation, percentage",[4],10.0%
same,"significant alleviation, the number of people",[4],1 person
same,"effect on the main symptoms of premenstrual syndrome (dysmenorrhea, period of dysmenorrhea, coldness of hands and feet), in words","daily dose of 600 mg, 1,200 mg, and 2,400 mg",Significant reductions; also recorded: significantly alleviating
same,"alleviation, percentage","dysmenorrhea, 600 mg a day",30.0%
same,"alleviation, the number of people","dysmenorrhea, 600 mg a day",3 person
same,"complete alleviation, percentage","dysmenorrhea, 600 mg a day",0.0%
same,"complete alleviation, the number of people","dysmenorrhea, 600 mg a day",0 person
same,"no change, percentage","dysmenorrhea, 600 mg a day",40.0%
same,"no change, the number of people","dysmenorrhea, 600 mg a day",4 person
same,"significant alleviation, percentage","dysmenorrhea, 600 mg a day",30.0%
same,"significant alleviation, the number of people","dysmenorrhea, 600 mg a day",3 person
same,"alleviation, percentage","dysmenorrhea, 1,200 mg a day",10.0%
same,"alleviation, the number of people","dysmenorrhea, 1,200 mg a day",1 person
same,"complete alleviation, percentage","dysmenorrhea, 1,200 mg a day",60.0%
same,"complete alleviation, the number of people","dysmenorrhea, 1,200 mg a day",6 person
same,"no change, percentage","dysmenorrhea, 1,200 mg a day",10.0%
same,"no change, the number of people","dysmenorrhea, 1,200 mg a day",1 person
same,"significant alleviation, percentage","dysmenorrhea, 1,200 mg a day",20.0%
same,"significant alleviation, the number of people","dysmenorrhea, 1,200 mg a day",2 person
same,"alleviation, percentage","dysmenorrhea, 2,400 mg a day",0.0%
same,"alleviation, the number of people","dysmenorrhea, 2,400 mg a day",0 person
same,"complete alleviation, percentage","dysmenorrhea, 2,400 mg a day",80.0%
same,"complete alleviation, the number of people","dysmenorrhea, 2,400 mg a day",8 person
same,"no change, percentage","dysmenorrhea, 2,400 mg a day",0.0%
same,"no change, the number of people","dysmenorrhea, 2,400 mg a day",0 person
same,"significant alleviation, percentage","dysmenorrhea, 2,400 mg a day",20.0%
same,"significant alleviation, the number of people","dysmenorrhea, 2,400 mg a day",2 person
same,"alleviation, percentage",[5],20.0%
same,"alleviation, the number of people",[5],2 person
same,"complete alleviation, percentage",[5],0.0%
same,"complete alleviation, the number of people",[5],0 person
same,"no change, percentage",[5],50.0%
same,"no change, the number of people",[5],5 person
same,"significant alleviation, percentage",[5],30.0%
same,"significant alleviation, the number of people",[5],3 person
same,"alleviation, percentage",[6],20.0%
same,"alleviation, the number of people",[6],2 person
same,"complete alleviation, percentage",[6],50.0%
same,"complete alleviation, the number of people",[6],5 person
same,"no change, percentage",[6],10.0%
same,"no change, the number of people",[6],1 person
same,"significant alleviation, percentage",[6],20.0%
same,"significant alleviation, the number of people",[6],2 person
same,"alleviation, percentage",[7],0.0%
same,"alleviation, the number of people",[7],0 person
same,"complete alleviation, percentage",[7],80.0%
same,"complete alleviation, the number of people",[7],8 person
same,"no change, percentage",[7],0.0%
same,"no change, the number of people",[7],0 person
same,"significant alleviation, percentage",[7],20.0%
same,"significant alleviation, the number of people",[7],2 person

# Source: patent publication US20200246277A1, “Composition For Alleviating, Preventing Or Treating Premenstrual Syndrome, Containing, As Active Ingredient, Pinitol, D-Chiro-Inositol Or Analog Compound Thereof” (DY NATURAL CO., LTD., priority 2015, published 2020)
